This data set can be described thus: Microfluidic peptide partitioning and transport through cervical mucus. Format: in vitro ADME, human. The following applies: for average maximum concentration of peptide accumulated inside mucus (enrichment at mucus-buffer interface): 15-min experiment; for average maximum concentration of peptide accumulated inside mucus (enrichment at mucus-buffer interface) / concentration of the peptide at the end of the channel (450 μm): mean (SD). On the procedure: We quantified partitioning and transport of the reporter peptides through mucus using a previously described microfluidics device, [38]. With this setup, a continuous aqueous flow of fluorescent peptides is generated within a micron-scale channel at carefully controlled rates adjacent to a stable mucus layer. The small sample volume (5 μL) required for this system is ideally suited for the study of native mucus samples, which are typically not available in large volumes. The peptide solutes partition into the mucus layer, and their subsequent transport is monitored with fluorescence microscopy (Fig. 3a and b).
We quantified the transport of (+) and (−) charged peptides in mucus from 20 ovulating, 15 low-risk pregnant, and 9 high-risk pregnant patients (Table 2; see the table caption for specific information on cohort composition). […] Peptides at a concentration of 4 μM were introduced into the microfluidic channel in the presence of the mucus sample or in the presence of buffer. […] Concentration profiles of the fluorescent peptides were acquired through the center cross - section of the mucus channel (Fig. 3a,b, Methods).
Peptides were synthesized, purified, and identified by the Swanson Biotechnology Center at the Koch Institute at MIT (Cambridge, MA, USA). […] Peptides were purified using reverse-phase high performance liquid chromatography. […] Before use in the microfluidic device, peptides were dissolved in H7 buffer (20 mM HEPES, 20 mM NaCl, pH 7) at a final concentration of 4 μM.
Microfluidic polydimethylsiloxane devices were designed and fabricated as previously described, [38], and cured at 95 °C for 48–72 h prior to use. Devices bonded to microscope slides were mounted on an inverted epifluorescence microscope (IX-71, Olympus American, Central Valley, PA; or Zeiss Observer Z1) equipped with a 5x or 10x objective and LED light source or mercury lamp (excitation at 450–495 nm or 475 nm, respectively). All channels were washed with H7 buffer before use. The two valves were closed or opened by applying or releasing pressure with a 3-mL syringe connected to the valves via polytetrafluoroethylene tubing. All experiments were carried out at room temperature. One to two microliters of sample were injected to fill the main channel. The two valves were closed while the inlet and outlet channels were washed with H7 buffer. The top valve was opened, exposing the mucus interface. Twenty-five microliters of peptide solution were added to the reservoir of each inlet. The flow rate of the peptide solution into the inlet channel was determined by gravitational flow. […] At least two successful experimental replicates were obtained for each patient mucus sample, except for one sample of cervical mucus, for which only one measurement was obtained.
Images were analyzed using ImageJ (v1.47; Wayne Rasband, National Institutes of Health, Bethesda, MD, USA; http://imagej.nih.gov/ij) and MATLAB software.

Where a SMILES comes first, the peptide text is derived from it. The star is where a group is joined. 6FAM = O=C1OC2(c3ccc(O)cc3Oc3cc(O)ccc32)c2cc(C(=O)*)ccc21

As to `C[C@H](NC(=O)c1ccc2c(c1)C1(OC2=O)c2ccc(O)cc2Oc2cc(O)ccc21)C(=O)N[C@@H](CCCCN)C(=O)N[C@@H](C)C(=O)N[C@@H](CCCCN)C(=O)N[C@@H](C)C(=O)N[C@@H](CCCCN)C(=O)N[C@@H](C)C(=O)N[C@@H](CCCCN)C(=O)N[C@@H](C)C(=O)N[C@@H](CCCCN)C(=O)N[C@@H](C)C(=O)N[C@@H](CCCCN)C(=O)N[C@@H](C)C(=O)N[C@@H](CCCCN)C(=O)N[C@@H](C)C(=O)N[C@@H](CCCCN)C(=O)N[C@@H](C)C(=O)N[C@@H](CCCCN)C(=O)N[C@@H](C)C(=O)N[C@@H](CCCCN)C(N)=O` [(+) peptide] (6FAM-AKAKAKAKAKAKAKAKAKAK-NH2), the “average maximum concentration of peptide accumulated inside mucus (enrichment at mucus-buffer interface)” value is, setting by setting: (mucus from high-risk pregnant patients (n = 9), microfluidic channel, 4 μM FAM-labelled peptide in H7 buffer pH 7, room temperature, epifluorescence read-out) 19.3 µM; (mucus from low-risk pregnant women (n = 15), microfluidic channel, 4 μM FAM-labelled peptide in H7 buffer pH 7, room temperature, epifluorescence read-out) 36.9 µM; (mucus from ovulating non-pregnant women (n = 20), microfluidic channel, 4 μM FAM-labelled peptide in H7 buffer (20 mM HEPES, 20 mM NaCl, pH 7), room temperature, epifluorescence read-out) 10.6 µM.
On to `C[C@H](NC(=O)c1ccc2c(c1)C1(OC2=O)c2ccc(O)cc2Oc2cc(O)ccc21)C(=O)N[C@@H](CCC(=O)O)C(=O)N[C@@H](C)C(=O)N[C@@H](CCC(=O)O)C(=O)N[C@@H](C)C(=O)N[C@@H](CCC(=O)O)C(=O)N[C@@H](C)C(=O)N[C@@H](CCC(=O)O)C(=O)N[C@@H](C)C(=O)N[C@@H](CCC(=O)O)C(=O)N[C@@H](C)C(=O)N[C@@H](CCC(=O)O)C(=O)N[C@@H](C)C(=O)N[C@@H](CCC(=O)O)C(=O)N[C@@H](C)C(=O)N[C@@H](CCC(=O)O)C(=O)N[C@@H](C)C(=O)N[C@@H](CCC(=O)O)C(=O)N[C@@H](C)C(=O)N[C@@H](CCC(=O)O)C(N)=O` [(−) peptide] (6FAM-AEAEAEAEAEAEAEAEAEAE-NH2), for which the “concentration of the peptide at the end of the channel (450 μm)” value was found to be 1100 nM (mucus from high-risk pregnant patients (n = 9), 4 μM FAM-labelled peptide in H7 buffer pH 7, room temperature, epifluorescence read-out) and 500 nM (mucus from low-risk pregnant patients (n = 15), 4 μM FAM-labelled peptide in H7 buffer pH 7, room temperature, epifluorescence read-out). In addition, the “retention (enrichment) of the peptide at the mucus barrier interface” value (mucus from high-risk pregnant patients (n = 9), microfluidic channel, 4 μM FAM-labelled peptide in H7 buffer pH 7, room temperature) is “not detected in any of the high-risk samples”. In addition, the “peptide concentration gradient through the mucus layer compared with buffer” value (mucus from ovulating women (n = 20), microfluidic channel, 4 μM FAM-labelled peptide in H7 buffer pH 7, room temperature, epifluorescence read-out) is “nearly identical with or without mucus present”.
